In patent publication US20240261398A1 (priority 2018, published 2024):
Where “and” joins values, the source holds several entries; their conditions need not be identical. Equal entries are not always repeated.

Assays:
MA-CA04 virus [1] = system: MA-CA04 virus; set-up: species or system mice; conditions: mouse, in vivo
MA-CA04 virus [2] = system: MA-CA04 virus; set-up: species or system BALB/c mice; conditions: mouse, in vivo

Row | Compound | Survival rate (%) (MA-CA04 virus [1]) | Mean value of antibody titers (Log 10 PFU/g) ± Standard deviation, Lung, 3 days after infection (MA-CA04 virus [2]) | Mean value of antibody titers (Log 10 PFU/g) ± Standard deviation, Nasal concha, 3 days after infection (MA-CA04 virus [2]) | also measured
1 | O.O=P([O-])([O-])OCC(O)CO.[Ca+2] (stereo not shown) | 75 | – | – | influence on body weight (FIG. 3 A and C) (MA-CA04 virus [1]): the same level as the previously known adjuvant Poly(I:C); survival rate (FIG. 3 B and D) (MA-CA04 virus [1]): the same level as Poly(I:C) or was slightly lower than Poly(I:C)
2 | CC(/C=C/C=C(C)/C=C/C(=O)O)=C\C=C\C=C(C)\C=C\C=C(C)\C=C\C(=O)O (stereo in doubt) [Norbixin] | 50 | 7.2 ± 0.3 Log 10 PFU/g and 7.4 ± 0.3 Log 10 PFU/g | – | –
3 | CC(/C=C/C=C(\C)C(=O)O[C@@H]1O[C@H](CO[C@@H]2O[C@H](CO)[C@@H](O)[C@H](O)[C@H]2O)[C@@H](O)[C@H](O)[C@H]1O)=C\C=C\C=C(C)\C=C\C=C(/C)C(=O)O[C@@H]1O[C@H](CO[C@@H]2O[C@H](CO)[C@@H](O)[C@H](O)[C@H]2O)[C@@H](O)[C@H](O)[C@H]1O [Crocin] | 50 | – | – | –
4 | COC(=O)[C@H](Cc1ccccc1)NC(=O)[C@H](CC(=O)O)NCCC(C)(C)C [Neotame] | – | 7.5 ± 0.3 Log 10 PFU/g and 7.5 ± 0.2 Log 10 PFU/g | 6.1 ± 0.05 Log 10 PFU/g and 6.3 ± 0.1 Log 10 PFU/g | virus titers in the nasal concha and the lung, six days after the infection (MA-CA04 virus [2]): no virus titers were detected in some mice
5 | Cc1cc2nc3c(=O)[nH]c(=O)nc-3n(C[C@H](O)[C@H](O)[C@H](O)CO)c2cc1C [Riboflavin] | 25 | – | – | –
6 | C[C@@H]1O[C@@H](OC[C@H]2O[C@@H](Oc3c(-c4ccc(O)c(O)c4)oc4cc(O)cc(O)c4c3=O)[C@H](O)[C@@H](O)[C@@H]2O)[C@H](O)[C@H](O)[C@H]1O [Rutin hydrate] | 75 | – | – | –
7 | O=C([O-])c1ccccc1.[Na+] [Sodium benzoate] | – | 6.7 ± 0.2 Log 10 PFU/g and 7.0 ± 0.2 Log 10 PFU/g | 6.4 ± 0.1 Log 10 PFU/g and 6.2 ± 0.04 Log 10 PFU/g | virus titers in the nasal concha and the lung, six days after the infection (MA-CA04 virus [2]): no virus titers were detected in some mice
8 | O=S([O-])[O-].[Na+].[Na+] [Sodium sulfite] | – | 7.0 ± 0.1 Log 10 PFU/g | 6.1 ± 0.3 Log 10 PFU/g and 6.2 ± 0.2 Log 10 PFU/g | –
